Test results taken from patent US20200277301A1 (ALFASIGMA S.P.A., priority 2005, published 2020).

Columns and labels:
in vivo = test: in vivo; set-up: species or system Beagle female dogs; conditions: female, Beagle, dog, po, 100 mg/kg
Experimental: Eight pure-bred Beagle females dogs having 20 weeks of age and weighing between 5.0 and 7.5 kg have been divided into two groups of four.
Each sample has been transferred into a tube containing heparin as anticoagulant and has been centrifuged; the plasma has been divided into two aliquots, each of 500 μl, and has been frozen at −20° C.
Tmax=time at which the Cmax is reached;
AUC=area under the concentration-time curve calculated through the linear trapezoidal rule.

[1] = Hygroscopicity of the polymorphous forms; type: physicochemical; conditions: absorb water in a reversible way under suitable pressure and ambient humidity
Excerpt: Both the forms δ and ε of the rifaximin are hygroscopic, they absorb water in a reversible way during the time in the presence of suitable conditions of pressure and humidity in the ambient and are susceptible of transformation to other forms.

With CO[C@H]1/C=C/O[C@@]2(C)Oc3c(C)c(O)c4c(O)c(c5c(nc6cc(C)ccn65)c4c3C2=O)NC(=O)/C(C)=C\C=C\[C@H](C)[C@H](O)[C@@H](C)[C@@H](O)[C@@H](C)[C@H](OC(C)=O)[C@@H]1C [Polymorph δ, rifaximin] the “AUC0-24 Mean” value (in vivo) was 801 ng·h/mL, the “Cmax Mean” value (in vivo) was 308.31 ng/mL and the “Tmax Mean” value (in vivo) was 2 h. The Cmax (in vivo; Cmax) was 308 ng/mL and the “hygroscopicity (in words)” value [1] was “hygroscopic”.

For CO[C@H]1/C=C/O[C@@]2(C)Oc3c(C)c(O)c4c(O)c(c5c(nc6cc(C)ccn65)c4c3C2=O)NC(=O)/C(C)=C\C=C\[C@H](C)[C@H](O)[C@@H](C)[C@@H](O)[C@@H](C)[C@H](OC(C)=O)[C@@H]1C [Polymorph ε, rifaximin], the “AUC0-24 Mean” value (in vivo) was 42 ng·h/mL, the “Cmax Mean” value (in vivo) was 6.86 ng/mL and the Tmax (in vivo) was 4 h. The “hygroscopicity (in words)” value [1] was “hygroscopic”.
